pKi: −log10 of the molar value. Read-outs that look alike come from different tables or passages of the source.
Tests used:
[1] = system: MV4:11 human cancer cell lines; test: Anti-proliferative activity, CellTiter-Glo viability assay, 7 day protocol; assay type: cell-based; conditions: Homo sapiens, MV4-11, 168 h, MV4:11 cells, 7 day incubation, read-out: GI50 on cellular proliferation of MV4:11 human cancer cell lines
Method in brief: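 MV4:11 cells seeded at 3600 cells/ml and exposed to compounds for 7 days, 0.1% DMSO final. Viability measured by CellTiter-Glo luminescence. GI50 from three biological replicates, each in technical triplicate, given as mean ± S.E.M.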

WDR5 = WDR5 (Homo sapiens (Human), UniProt P61964); test: TR-FRET binding assay (displacement of 10mer-Thr-FAM probe from WDR5)
[2] = read-out: Ki for Inhibition of WDR5 by TR-FRET assay, TR-FRET, 10mer-Thr-FAM probe, WDR5-His tag 2 nM, pH 7.0
[3] = read-out: Ki for Inhibition of WDR5 by TR-FRET assay

| pKi (WDR5) | Compound | GI50 [1] | pKi (WDR5; [2]) | pKi (WDR5; [3]) |
| --- | --- | --- | --- | --- |
| > 10.00 | Cc1cc([C@@H](NC(=O)c2cc(CN3CCN(C)C3=N)cc(-c3cn(C(C)C)nc3C(F)(F)F)c2)C2CC2)ccc1F [Example 215, (S)—N-(Cyclopropyl(4-fluoro-3-methylphenyl)methyl)-3-((2-imino-3-methylimidazolidin-1-yl)methyl)-5-(1-isopropyl-3-(trifluoromethyl)-1H-pyrazol-4-yl)benzamide] | < 100 nM | – | – |
| – | COc1cc(CNC(=O)c2cc(Cn3ccn(C)c3=N)cc(-c3c(C)cc(F)cc3F)c2)cc(OC)c1 [Example 52, N-(3,5-dimethoxybenzyl)-2′,4′-difluoro-5-((2-imino-3-methyl-2,3-dihydro-1H-imidazol-1-yl)methyl)-6′-methyl-[1,1′-biphenyl]-3-carboxamide] | 510 nM | 9.72 | – |
| – | Cn1cc(-c2cc(CN3CCOC3=N)cc(C(=O)N[C@H](c3ccc(Cl)c(Cl)c3)C3CC3)c2)c(C(F)(F)F)n1 [Example 269, (S)—V—N-(Cyclopropyl(3,4-dichlorophenyl)methyl)-3-((2-iminooxazolidin-3-yl)methyl)-5-(1-methyl-3-(trifluoromethyl)-1H-pyrazol-4-yl)benzamide] | < 100 nM | > 10.00 | – |
| – | COc1cc([C@@H](NC(=O)c2cc(CN3CCCC3=N)cc(-c3cn(C)nc3C(F)(F)F)c2)C2CC2)ccc1F [Example 339, (S)—N-(Cyclopropyl(4-fluoro-3-methoxyphenyl)methyl)-3-((2-iminopyrrolidin-1-yl)methyl)-5-(1-methyl-3-(trifluoromethyl)-1H-pyrazol-4-yl)benzamide] | 100 nM | – | > 10.00 |
| – | Cn1ccn(Cc2cc(C(=O)N[C@H](c3ccc(Cl)c(Cl)c3)C3CC3)cc(-c3ncc(F)cc3C(F)(F)F)c2)c1=N [Example 187] | 440 nM | > 10.00 | – |
| – | Cc1cc([C@@H](NC(=O)c2cc(Cn3ccsc3=N)cc(-c3cn(C(C)C)nc3C(F)(F)F)c2)C2CC2)ccc1F [Example 322, (S)—N-(Cyclopropyl(4-fluoro-3-methylphenyl)methyl)-3-((2-iminothiazol-3(2H)-yl)methyl)-5-(1-isopropyl-3-(trifluoromethyl)-1H-pyrazol-4-yl)benzamide] | 150 nM | – | > 10.00 |
| – | CCn1cc(-c2cc(Cn3ccn(C)c3=N)cc(C(=O)N[C@H](c3ccc(Cl)c(Cl)c3)C3CC3)c2)c(C(F)(F)F)n1 [Example 161, (S)—N-(Cyclopropyl(3,4-dichlorophenyl)methyl)-3-(1-ethyl-3-(trifluoromethyl)-1H-pyrazol-4-yl)-5-((2-imino-3-methyl-2,3-dihydro-1H-imidazol-1-yl)methyl)benzamide] | < 100 nM | – | > 10.00 |
| – | Cc1cc([C@@H](NC(=O)c2cc(Cn3ccn(C)c3=N)cc(-c3cn(C(C)C)nc3C(F)(F)F)c2)C2CC2)ccc1F [Example 193, (S)—N-(Cyclopropyl(4-fluoro-3-methylphenyl)methyl)-3-((2-imino-3-methyl-2,3-dihydro-1H-imidazol-1-yl)methyl)-5-(1-isopropyl-3-(trifluoromethyl)-1H-pyrazol-4-yl)benzamide] | < 100 nM | > 10.00 | – |
| – | Cc1cc([C@@H](NC(=O)c2cc(Cn3ccn(C)c3=N)cc(C3(C(F)(F)F)CC3)c2)C2CC2)ccc1F [Example 217, (S)—N-(cyclopropyl(4-fluoro-3-methylphenyl)methyl)-3-((2imino-3-methyl-2,3-dihydro-1H-imidazol-1-yl)methyl)-5-(1-(trifluoromethyl)cyclopropyl)benzamide] | < 100 nM | > 10.00 | – |
| > 10.00 | COc1cc([C@@H](NC(=O)c2cc(Cn3ccoc3=N)cc(-c3cn(C)nc3C(F)(F)F)c2)C2CC2)ncc1F [Example 306, (S)—N-(Cyclopropyl(5-fluoro-4-methoxypyridin-2-yl)methyl)-3-((2-iminooxazol-3(2H)-yl)methyl)-5-(1-methyl-3-(trifluoromethyl)-1H-pyrazol-4-yl)benzamide] | 410 nM | – | – |
| – | COc1cc(CNC(=O)c2cc(Cn3ccn(C)c3=N)cc(-c3ccc(F)cc3OC(F)F)c2)cc(OC)c1 [Example 62, 2′-(Difluoromethoxy)-N-(3,5-dimethoxybenzyl)-4′-fluoro-5-((2-imino-3-methyl-2,3-dihydro-1H-imidazol-1-yl)methyl)-[1,1′-biphenyl]-3-carboxamide] | 800 nM | 9.54 | – |
| – | Cc1cc([C@@H](NC(=O)c2cc(Cn3ccn(C)c3=N)cc(-c3ncc(F)cc3C)c2)C2CC2)ccc1F [Example 66, (S)—N-(Cyclopropyl(4-fluoro-3-methylphenyl)methyl)-3-(5-fluoro-3-methylpyridin-2-yl)-5-((2-imino-3-methyl-2,3-dihydro-1H-imidazol-1-yl)methyl)benzamide] | 510 nM | 9.92 | – |
| – | Cc1cc([C@@H](NC(=O)c2cc(Cn3ccn(C)c3=N)cc(C(C)C(F)(F)F)c2)C2CC2)ccc1F (stereo partly drawn) [Example 195, N—((S)-Cyclopropyl(4-fluoro-3-methylphenyl)methyl)-3-((2-imino-3-methyl-2,3-dihydro-1H-imidazol-1-yl)methyl)-5-(1,1,1-trifluoropropan-2-yl)benzamide] | 940 nM | > 10.00 | – |
| – | Cc1ccc2[nH]ncc2c1-c1cc(Cn2ccn(C)c2=N)cc(C(=O)NCc2ccc(Cl)c(Cl)c2)c1 [Example 27, N-(3,4-Dichlorobenzyl)-3-((2-imino-3-methyl-2,3-dihydro-1H-imidazol-1-yl)methyl)-5-(5-methyl-1H-indazol-4-yl)benzamide] | 3100 nM | 8.82 | – |
| – | Cc1cc([C@@H](NC(=O)c2cc(Cn3ccccc3=N)cc(-c3cn(C)nc3C(F)(F)F)c2)C2CC2)ccc1F [Example 352, (S)—N-(cyclopropyl(4-fluoro-3-methylphenyl)methyl)-3-((2-iminopyridin-1(2H)-yl)methyl)-5-(1-methyl-3-(trifluoromethyl)-1H-pyrazol-4-yl)benzamide] | < 100 nM | > 10.00 | – |
| – | COc1cc(OC)cc(C(NC(=O)c2cc(Cn3ccn(C)c3=N)cc(-c3ccc(F)cc3OC(F)F)c2)C2CC2)c1 (stereo not drawn) [Example 63, N-(Cyclopropyl(3,5-dimethoxyphenyl)methyl)-2′-(difluoromethoxy)-4′-fluoro-5-((2-imino-3-methyl-2,3-dihydro-1H-imidazol-1-yl)methyl)-[1,1′-biphenyl]-3-carboxamide] | 460 nM | 10.00 | – |
| – | COc1cc(OC)cc(C(NC(=O)c2cc(Cn3ccoc3=N)cc(-c3ncccc3C(F)(F)F)c2)C2CC2)c1 (stereo not drawn) [Example 235, N-(Cyclopropyl(3,5-dimethoxyphenyl)methyl)-3-((2-iminooxazol-3(2H)-yl)methyl)-5-(3-(trifluoromethyl)pyridin-2-yl)benzamide] | 3100 nM | 8.46 | – |
| – | COc1cc([C@@H](NC(=O)c2cc(CN3CCOC3=N)cc(-c3cccnc3C(F)(F)F)c2)C2CC2)ccc1F [Example 305, (S)—N-(Cyclopropyl(4-fluoro-3-methoxyphenyl)methyl)-3-((2-iminooxazolidin-3-yl)methyl)-5-(2-(trifluoromethyl)pyridin-3-yl)benzamide] | < 100 nM | > 10.00 | – |
| – | COc1cc(CNC(=O)c2cc(Cn3ccn(C4CC4)c3=N)cc(-c3ccc(F)cc3C)c2)cc(OC)c1 [Example 117, 5-((3-Cyclopropyl-2-imino-2,3-dihydro-1H-imidazol-1-yl)methyl)-N-(3,5-dimethoxybenzyl)-4′-fluoro-2′-methyl-[1,1′-biphenyl]-3-carboxamide] | 310 nM | 9.82 | – |
| – | Cc1ccnc(C(NC(=O)c2cc(Cn3ccn(C)c3=N)cc(-c3ccc(F)cc3C(F)(F)F)c2F)C2CC2)c1 (stereo not drawn) [Example 105, N-(Cyclopropyl(4-methylpyridin-2-yl)methyl)-2,4′-difluoro-5-((2-imino-3-methyl-2,3-dihydro-1H-imidazol-1-yl)methyl)-2′-(trifluoromethyl)-[1,1′-biphenyl]-3-carboxamide] | 400 nM | > 10.00 | – |
| – | Cc1cc([C@@H](NC(=O)c2cc(Cn3ccn(C)c3=N)cc(-c3ccc(F)cc3C(F)F)c2)C2CC2)ccc1F [Example 154, (S)—N-(Cyclopropyl(4-fluoro-3-methylphenyl)methyl)-2′-(difluoromethyl)-4′-fluoro-5-((2-imino-3-methyl-2,3-dihydro-1H-imidazol-1-yl)methyl)-[1,1′-biphenyl]-3-carboxamide] | 120 nM | > 10.00 | – |
| – | Cc1ccnc([C@@H](NC(=O)c2cc(Cn3ccn(C)c3=N)cc(-c3cccnc3C(F)(F)F)c2F)C2CC2)c1 [Example 132, (S)—N-(Cyclopropyl(4-methylpyridin-2-yl)methyl)-2-fluoro-5-((2-imino-3-methyl-2,3-dihydro-1H-imidazol-1-yl)methyl)-3-(2-(trifluoromethyl)pyridin-3-yl)benzamide] | 610 nM | 9.89 | – |
| – | COc1cc(CNC(=O)c2cc(Cn3ccn(C)c3=N)cc(-c3ccc(F)cc3C(F)(F)F)c2)cc(OC)c1 [Example 98, N-(3,5-Dimethoxybenzyl)-4′-fluoro-5-((2-imino-3-methyl-2,3-dihydro-1H-imidazol-1-yl)methyl)-2′-(trifluoromethyl)-[1,1′-biphenyl]-3-carboxamide] | 160 nM | 10.22 | – |
| – | Cc1cc(CNC(=O)c2cc(Cn3ccn(C)c3=N)cc(-c3ccc(F)cc3C)n2)ccc1Cl [Example 56, N-(4-Chloro-3-methylbenzyl)-6-(4-fluoro-2-methylphenyl)-4-((2-imino-3-methyl-2,3-dihydro-1H-imidazol-1-yl)methyl)picolinamide] | 450 nM | 8.92 | – |

Source: patent publication US10844044B2 (Vanderbilt University, priority 2018, dated 2020)
